Target: T1, G Protein-Coupled Estrogen Receptor (GPER, GPR30) (Homo sapiens, UniProt Q99527)
T1 construct: gene GPER1; plasma membranes of HEK293 cells stably transfected with GPER
Assay: [3H]E2 competitive radioligand binding to plasma membranes of GPER-transfected HEK293 cells

T1 sequence (Q99527 whole entry): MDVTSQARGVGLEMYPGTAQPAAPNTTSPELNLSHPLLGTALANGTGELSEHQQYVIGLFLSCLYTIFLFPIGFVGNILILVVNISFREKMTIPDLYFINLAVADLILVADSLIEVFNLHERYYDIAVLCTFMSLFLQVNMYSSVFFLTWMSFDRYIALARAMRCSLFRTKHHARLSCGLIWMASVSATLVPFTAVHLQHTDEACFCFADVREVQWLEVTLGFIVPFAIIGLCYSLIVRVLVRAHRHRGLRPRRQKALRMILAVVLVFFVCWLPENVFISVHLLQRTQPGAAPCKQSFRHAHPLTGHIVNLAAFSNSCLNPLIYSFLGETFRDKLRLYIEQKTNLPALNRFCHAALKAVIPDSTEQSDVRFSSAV

## C[C@@H](CO)CCC[C@@H](C)[C@H]1CC[C@H]2[C@@H]3CC=C4C[C@@H](O)CC[C@]4(C)[C@H]3CC[C@]12C [27HC, 27-hydroxycholesterol]
  IC50: 500 to 800 nM

Source: publication PMC8946696, “27-Hydroxycholesterol Binds GPER and Induces Progression of Estrogen Receptor-Negative Breast Cancer” (Cancers, 2022)
